Measurements published in patent US20180346446A1, “IRE1 SMALL MOLECULE INHIBITORS” (QUENTIS THERAPEUTICS, INC., priority 2017, published 2018).

Legend:
[1] = Microsome stability assay, human liver microsomes; assay type: in vitro ADME; details: formic acid salt
Protocol: (§1) The formic acid salt of Compound 3 was tested under the microsome stability assay outlined below. Test compounds were incubated at 37° C. with liver microsomes (pooled from multiple donors) at […] in the presence of a NADPH regenerating system at 0.5 mg/ml microsomal protein. Positive controls included Testosterone (3A4 substrate), Propafenone (2D6) and Diclofenac (2C9), which were incubated with microsomes in the presence of an NADPH regenerating system. At time points (0, 5, 10, 20, 30 and 60 minutes), samples were removed and immediately mixed with cold acetonitrile containing internal standard (IS). Test compounds incubated with microsomes without the NADPH regenerating system for 60 min was also included. A single point for each test condition (n=1) was obtained, and samples were analyzed by LC/MS/MS. Disappearance of the test compound was assessed based on peak area ratios of analyte/IS (no standard curve).

[2] = system: IRE1a-mediated XBP1 splicing; test: Inhibition of IRE1a signaling in cell types of the tumor microenvironment (metastatic ovarian cancer mice); assay type: in vivo; details: mice with metastatic ovarian cancer, 11 mg/kg, 12 hours, tumor cells, DC, CD4+ and CD8+ T cells from ascites
Protocol: A syngeneic mouse model for metastatic, orthotopic ovarian cancer was used to analyze the in vivo effects of compounds described herein. Assay conditions were similar to those described in Example 11, administering compound 3 for comparison against controls. […] After 12 hours, the ascites were drained and FACS was used to purify the cells into four populations: tumor cells, dendritic cells (DC), CD4+ T cells, and CD8+ T cells. Then, PCR and qPCR was used to quantify spliced Xbp1 transcripts and total Xbp1 transcripts. […] Compound 3 can therefore inhibit IRE1a-mediated XBP1 splicing in vivo in tumor cells and key immune cell types found within the tumor microenvironment.

[3] = Microsome stability assay, mouse liver microsomes; assay type: in vitro ADME; details: formic acid salt
Protocol: as §1

[4] = system: IRE1a-mediated XBP1 splicing; test: Suppression of XBP1 splicing in liver of tunicamycin-injected mice; assay type: in vivo; details: 0.25 mg/kg tunicamycin, 10 mg/kg compound intraperitoneal, 4 hours, RT-qPCR
Protocol: Mice were injected with 0.25 mg/kg tunicamycin dissolved in DMSO: PBS at a ratio of 1:3. After 2 hours, the mice were injected with 10 mg/kg of Compound 3 dissolved in water or water alone as a vehicle control. After an additional 4 hours, the animals were euthanized, livers dissected out, and 2-3 mm^3 liver pieces are flash frozen on dry ice. Liver pieces were then thawed in Trizol on ice, homogenized for 3 minutes with a bead mill at medium-high speed. RNA was then extracted from the Trizol solution according to the manufacturer's recommendation. Gene expression analysis was also performed via Reverse Transcription quantitative PCR (RT-qPCR) using a Stratagene Mx3005 instrument and SYBR green I (Life Technologies). Gene expression was measured of the spliced Xbp1s transcript, a primer set measuring all Xbp1 transcripts, Xbp1s target genes including Sec24d and general ER stress response markers Hspa5 (BiP) and Ddit3 (CHOP).

CCc1cc(-c2ccc(NS(=O)(=O)c3ccccc3Cl)cc2C)cc2cnc(N[C@H]3CC[C@H](N)CC3)nc12 [Compound 3, N-(4-(2-(((1r,4r)-4-aminocyclohexyl)amino)-8-ethylquinazolin-6-yl)-3-methylphenyl)-2-chlorobenzenesulfonamide]
HLM Remaining at 60 min ([1]; 60 min): 44% | Human CI ([1]; human liver microsomes, 37° C., NADPH regenerating system): 29.2 µL/min/mg | half-life at 1 NM ([1]; human, liver microsomes (pooled from multiple donors), 37° C., 0.5 mg/ml microsomal protein, NADPH regenerating system, read-out: Human Liver Microsome (HLM) T1/2): 47.5 min | splicing ratio of XBP1 (spliced Xbp1 transcripts divided by total Xbp1 transcripts) compared to vehicle-treated mice [2]: markedly reduced | Mouse Liver Microsome CI ([3]; 37° C., NADPH regenerating system): 31.9 µL/min/mg | Mouse Liver Microsome Remaining at 60 min ([3]; 60 min): 41% | half-life at 1 NM ([3]; mouse, liver microsomes (pooled from multiple donors), 37° C., 0.5 mg/ml microsomal protein, NADPH regenerating system, read-out: Mouse Liver Microsome T1/2): 43.5 min | suppression of IRE1a-mediated XBP1 splicing in vivo [4]: potently suppresses
